Source: article PMC3123436 (Bioorganic & medicinal chemistry, 2011)
≈ marks a conversion by molar mass, not a printed value.

Columns and labels:
Test in all cases: microbe, parasite or virus in culture
Conditions in all cases: Mycobacterium tuberculosis, read-out: MIC95 (95% inhibition)
[1] = system: M. tuberculosis isolate VA1215
[2] = system: M. tuberculosis isolate UCSD14768J
[3] = system: M. tuberculosis isolate VA1345

| SMILES | MIC [1] | MIC [2] | MIC [3] |
| --- | --- | --- | --- |
| O=C(NCCCN1CCCC1)c1ccc2c(c1)N(Cc1cccc(Cl)c1)C(=O)c1ccccc1[S+]2[O-] (stereo not shown) [Compound 17] | 220 µM (≈ 115 µg/mL) | 220 µM (≈ 115 µg/mL) | 220 µM (≈ 115 µg/mL) |
| CN(CCCNC(=O)c1ccc2c(c1)N(Cc1cccc(Cl)c1)C(=O)c1ccccc1[S+]2[O-])C1CCCCC1 (stereo not shown) [Compound 2, N-[3-(cyclohexylmethylamino)propyl]-10-[(3-chlorophenyl)methyl]-10,11-dihydro-11-oxo-dibenzo-[b,f][1,4]-thiazepine-8-carboxamide-5-oxide] | 110 µM (≈ 62.1 µg/mL) | 110 µM (≈ 62.1 µg/mL) | 110 µM (≈ 62.1 µg/mL) |
| CCC1CCCCN1CCCNC(=O)c1ccc2c(c1)N(Cc1cccc(Cl)c1)C(=O)c1ccccc1[S+]2[O-] (stereo not shown) [Compound 12] | 110 µM (≈ 62.1 µg/mL) |  |  |
| O=C(NCCCN1CCCC1)c1ccc2c(c1)N(Cc1cccc(Cl)c1)C(=O)c1ccccc1S2 [Compound 18] | 110 µM (≈ 55.7 µg/mL) | 110 µM (≈ 55.7 µg/mL) | 110 µM (≈ 55.7 µg/mL) |
| O=C(NCCN1CCCCCC1)c1ccc2c(c1)N(Cc1cccc(Cl)c1)C(=O)c1ccccc1[S+]2[O-] (stereo not shown) [Compound 20] | 110 µM (≈ 59 µg/mL) | 110 µM (≈ 59 µg/mL) | 110 µM (≈ 59 µg/mL) |
